Tests used:
[1] = test system: C25: single-strain DNA chain, comprising 25 Cytosines; experiment: Fluorescence N*/T* ratio vs DNA concentration, C25; conditions: C25 added to 3-HFNMe3 in ultra pure water
Description: C25: A single-strain DNA chain, comprising 25 Cytosines
(§1) Fluorescence emission was then recorded after each addition the DNA solution (2 μl, 20 nmol/ml). The ratio of N* and T* bands was calculated and a graph, having N*/T* ratio vs DNA concentration was plotted.

[2] = test system: T25: single-strain DNA chain, comprising 25 Thymines; experiment: Fluorescence N*/T* ratio vs DNA concentration, T25; conditions: T25 added to 3-HFNMe3 in ultra pure water
Description: T25: A single-strain DNA chain, comprising 25 Thymines
as §1

single-strain DNA chains = experiment: Fluorescence measurements on gradual addition of DNA solution; conditions: ultra pure water; DNA solution added in 2 μl portions (20 nmol/ml)
Description: as §1

For “N-(3-hydroxy-4′-flavonyl)-N,N,N-trimethylammonium sulphate [3-HFNMe3]”, the “N*/T* curve, rank among DNA chains” value [1] was “highest”, the “N*/T* curve, rank among DNA chains” value [2] was “lowest” and the “effect of DNA addition on fluorescence emission” value (single-strain DNA chains) was “ratiometric quenching of particularly the N* band”.
